Data published in patent US7488759B2, “Malic acid addition salts of terbinafine” (Novartis AG, priority 2001, dated 2009).
Structures can show the parent of a compound that is named as a salt. Where two headings read alike, the source gives them in different places.

What was measured:
[1] = pharmacokinetic study in Beagle dogs, oral capsules; assay type: in vivo; settings: 7 Beagle dogs, oral capsule 62.5 mg base equivalent
Procedure: This appears i.a. from a pharmacokinetic study in animals involving 7 Beagle dogs weighing about 10 kg, aged about 5 years, upon oral administration of capsules prepared by mixing active terbinafine salt substance [hydrochloride or L-(−)-hydrogen malate; 62.5 mg base equivalent per capsule] with lactose in a ratio of 1:1 w/w and filling into appropriate hard gelatine capsules (particle size distribution similar for both salts).

[2] = solubility in water and organic solvents; assay type: physicochemical; settings: for solubility: 25 °C
Text: They thus form crystals more readily than the hydrochloride or the free base. […] Polymorphs have different dissolution rates, milling behaviour and stability, e.g. in galenical forms where the pharmaceutically active compound is in solid form, such as tablets or suspensions, and they influence bioavailability. The surprising presence of polymorphism is therefore advantageous in terms of improved processability, such as with polymorph particularly stable thermodynamically, in formulations with compound in solid form, e.g. tablets or suspensions, or with polymorph having a particularly high dissolution rate or solubility, in formulations with dissolved compound, e.g. nail lacquers. The compounds of the invention are therefore better processable for e.g. large scale tablet formulation; they also have favourable penetration/permeation properties and can thus readily be formulated into topical forms, such as nail lacquers. […] Further, they are non-hygroscopic, thus providing stable formulations while minimizing the risk of intrinsic chemical breakdown.

[3] = in vitro nail penetration/permeation assay (modified Franz cell); assay type: in vitro ADME, human; settings: 72 hours, 1% solution
Procedure: Human cadaveric toe nails are used in a Franz cell (FIG. 1) modified to accept cadaveric human toenails by having a pair of flexible rings made of a silicone elastomer (PDMS) having good sealant properties to adequately mount hard nails, using liquid scintillation counting (LSC) (picogram limit of detection) to measure the increase in radioactivity in the acceptor compartment. Each measurement is effected in triplicate. 90 randomly selected nails are exposed for 72 hours to a solution of 100 μl of ^14C-labelled terbinafine hydrochloride or terbinafine L-(−)-hydrogen malate (form A) solution [25 μBq/ml; 1% active product; 5% 1,2-propylene glycol; 2% Cetomacrogol-1000® (polyoxyethylene-glycol-1000-monoacetylether); 25% ethanol 94%; 67% distilled water] (w/w). Each area of the nail exposed to the formulation has a 9 mm diameter (about 64 mm^2). Exposure is effected under occlusive (chamber closed to air) and non-occlusive (chamber open to air) conditions.
The radiolabelled product is detectable in the buffer-filled receptor chamber from about 8 hours of incubation. Its concentration in the receptor chamber as measured by LSC increases with incubation time and concentration of applied formulation. A total of 24 penetration chambers are used in parallel. Each formulation is measured in triplicate.

[4] = set-up: AUC increase factor in steady state vs single dose: unit not given beside the values; settings: cited from earlier work
CYP2D6 = CYP2D6 (Homo sapiens, UniProt P10635); settings: cited from earlier work
[5] = Beagle, dog, plasma, po, 62.5 mg
[6] = ethanol, organic solvent or mixture, read-out: solubility in ethanol
[7] = human subjects, single 250 mg terbinafine dose
[8] = steady state after several days dosing

Sequence of CYP2D6 (P10635 whole entry): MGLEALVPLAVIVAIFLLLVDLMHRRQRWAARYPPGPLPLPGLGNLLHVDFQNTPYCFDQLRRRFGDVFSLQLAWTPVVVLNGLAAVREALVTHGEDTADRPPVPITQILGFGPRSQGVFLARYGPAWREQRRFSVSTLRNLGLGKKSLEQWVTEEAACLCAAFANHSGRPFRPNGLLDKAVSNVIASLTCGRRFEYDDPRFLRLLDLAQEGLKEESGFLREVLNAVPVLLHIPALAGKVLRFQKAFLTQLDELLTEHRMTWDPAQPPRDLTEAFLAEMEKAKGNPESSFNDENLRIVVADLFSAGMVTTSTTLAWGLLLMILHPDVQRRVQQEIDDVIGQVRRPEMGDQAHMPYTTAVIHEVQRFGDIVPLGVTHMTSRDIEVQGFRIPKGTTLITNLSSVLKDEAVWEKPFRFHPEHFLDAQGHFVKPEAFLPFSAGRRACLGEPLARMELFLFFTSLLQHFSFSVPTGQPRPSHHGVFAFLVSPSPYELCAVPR

Question: Which “coefficient of variation (CV) of AUC, inter-animal variability” value [1] does the source give for `CN(C/C=C/C#CC(C)(C)C)Cc1cccc2ccccc12` [L-(−)-hydrogen malate, terbinafine L-(−)-hydrogen malate] here?
Answer: 30%

Question: And the AUC [1, 5]?
Answer: 0.392 µg·h/mL

Question: And the Cmax [1, 5]?
Answer: 0.134 µg/mL

Question: And the “solubility in ethyl acetate” value ([2]; 25°)?
Answer: > 30 mg/mL

Question: And the solubility in water ([2]; 25°)?
Answer: 12 to 15 mg/mL

Question: Which solubility in water ([2]; 25°) does the source give for `CN(C/C=C/C#CC(C)(C)C)Cc1cccc2ccccc12` [Example 2, Terbinafine L-(−)-hydrogen malate (polymorph form B)] here?
Answer: 15 mg/mL

Question: Which “amount recovered in receptor chamber (permeation)” value ([3]; non-occlusive conditions) does the source give for `CN(C/C=C/C#CC(C)(C)C)Cc1cccc2ccccc12` [Example 1, Terbinafine L-(−)-hydrogen malate (polymorph form A)] here?
Answer: ~41 ng

Question: What about the “amount recovered in receptor chamber (permeation)” value ([3]; occlusive conditions) of the same compound?
Answer: about 63 ng

Question: And the “solubility in ethyl acetate” value ([2]; 25°)?
Answer: > 30 mg/mL

Question: What about the solubility in water ([2]; 25°) of the same compound?
Answer: ~12 mg/mL

Question: What about the solubility in ethanol ([2]; 25°, listed as Example 3) of the same compound?
Answer: > 50 mg/mL

Question: What about the solubility ([2]; aqueous with cosolvent or surfactant or cyclodextrin, solubility, read-out: solubility in ethane/water 2:8 v/v) of the same compound?
Answer: > 30 mg/mL

Question: What about the solubility [2, 6] of the same compound?
Answer: > 30 mg/mL

Question: Which solubility [2, 6] does the source give for `CN(C/C=C/C#CC(C)(C)C)Cc1cccc2ccccc12` (racemic) [Example 5, Terbinafine DL-(±)-hydrogen malate] here?
Answer: > 50 mg/mL

Question: What about the solubility ([2]; ethyl acetate, organic solvent or mixture, read-out: solubility in ethyl acetate) of the same compound?
Answer: ~17 mg/mL

Question: And the solubility ([2]; water, water, read-out: solubility in water)?
Answer: ~7 mg/mL

Question: For `CN(C/C=C/C#CC(C)(C)C)Cc1cccc2ccccc12` [terbinafine hydrochloride], which “coefficient of variation (CV) of AUC, inter-animal variability” value ([1]; hydrochloride) is on record?
Answer: 39%

Question: What about the “mean AUC” value ([1]; hydrochloride) of the same compound?
Answer: 0.348 µg·h/mL

Question: And the “mean Cmax” value ([1]; hydrochloride)?
Answer: 0.146 µg/mL

Question: And the “increase in AUC with a fat-rich meal” value ([4]; administered with a fat-rich meal)?
Answer: 42%

Question: What about the “Peak drug plasma concentration (Cmax)” value [4, 7] of the same compound?
Answer: about 1.3 μg/ml

Question: And the “area under the curve over 24 hours (AUC)” value [4, 7]?
Answer: about 4.76 μg·hour/ml

Question: What about the effective half-life ([4]; human, in vivo) of the same compound?
Answer: about 36 hours

Question: What about the reduction of clearance ([4]; patients with renal impairment (creatinine clearance ≤50 ml/min) or hepatic cirrhosis) of the same compound?
Answer: approximately 50%

Question: What about the “AUC increase factor in steady state vs single dose” value [4, 8] of the same compound?
Answer: 2.5

Question: What about the “Cmax higher in steady state vs single dose” value [4, 8] of the same compound?
Answer: 25%

Question: For `CN(C/C=C/C#CC(C)(C)C)Cc1cccc2ccccc12` [Terbinafine, (E)-N-methyl-6,6-dimethyl-N-(1-naphthylmethyl)hept-2-en-4-inyl-1-amine], which “inhibition of CYP2D6” value (CYP2D6) is on record?
Answer: potent inhibitor

Question: Which solubility in water ([2]; 25°) does the source give for `CN(C/C=C/C#CC(C)(C)C)Cc1cccc2ccccc12` [Example 4, Terbinafine D-(+)-hydrogen malate] here?
Answer: ~7 mg/mL
